Measurements reported in US20150299155A1, “Sesquiterpene lactone-based pharmaceutical composition for treating gastrointestinal diseases” (CHO DANG PHARM. CO., LTD., priority 2012, published 2015).
Marks after values point to notes of the source that are not given here.

Assays:
[1] = system: HCl-Ethanol inducing gastritis model; assay: HCl-Ethanol inducing gastritis model; assay type: in vivo, white rats; settings: for anti-gastritis efficacy: all administration groups
Method: After white rats have been fasted for 24 hours, CD-101, CD-102 and CD-103 compound have been orally administered according to method disclosed in Mizui et al., Jap. J. Pharmacol. 33: pp. 939-945 (1983). After 1 hour, 1.5 ml of 60% ethanol including 150 mM HCl has been orally administered to each animal. 1 hour later, animals have been sacrificed by cervical dislocation. After removing the stomach, the stomach has been fixed by injection of 13 ml of 2% formalin for 1 hour. After fixed stomach has been spread out, the lesion area has been measured using the photo by digital camera. Computer program Image J 1.38 (NIH, Bethesda, Md.) has been applied for measuring gastric lesion area (mm^2) The lesion inhibition rate has been calculated according to following equation. Further, 50% effective dose (ED50) has been also calculated using regression analysis.
Lesion inhibition rate(%)={gastric lesion area of control group(mm^2)−gastric lesion area of drug administration group(mm^2)}/gastric lesion area of control group(mm^2)×100

[2] = system: indomethacin inducing stomach ulcer model; assay: Indomethacin inducing stomach ulcer model; assay type: in vivo, white rats; settings: oral; for anti-stomach ulcer efficacy: all administration groups
Method: After white rats have been fasted for 24 hours, CD-101, CD-102 and CD-103 compound have been orally administered according to method disclosed in Yamasaki et al., Jap. J. Pharmacol. 49: pp. 441-448 (1989). After 1 hour, indomethacin (50 mg/kg) has been orally administered to each animal After fasting for 5 hours, animals have been sacrificed by cervical dislocation. After removing the stomach, the stomach has been fixed by injection of 13 ml of 2% formalin for 1 hour. After fixed stomach has been spread out, the lesion area has been measured using the photo by digital camera. Computer program Image J 1.38 (NIH, Bethesda, Md.) has been applied for measuring gastric lesion area (mm^2) The lesion inhibition rate and 50% effective dose (ED50) have been calculated as the same manner of HCl-EtOH model.

[3] = system: Chinese hamster lung (CHL) cell; assay: Chromosomal aberration test using Chinese hamster lung (CHL) cell; assay type: cell-based; settings: for induction of chromosomal aberration: CHL cell, overall conclusion
Source text: For measuring the induction of chromosomal aberration, the chromosomal aberration test has been carried out using Chinese hamster lung (CHL) cell. 2 kinds of methods have been adopted, such as, metabolic activation method (+S9) using metabolic activation system and direct method (−S9) without metabolic activation system.
For determining the test material reacting concentration, the cell growth inhibition test has been carried out. The test material has been dissolved and diluted in dimethyl sulfoxide (DMSO). Regardless of metabolic activation system, 12 concentration steps (2.43, 4.87, 9.75, 19.5, 39.1, 78.1, 156.3, 312.5, 625, 1250, 2500, 5000 μg/ml) of test material have been prepared. The cells have been cultured for 24 hours as the same way of main test. […] The medium has been further cultured for 18 hours.
Based upon the data of cell growth inhibition test, maximum concentration has been determined when the cell growth has been inhibited up to 50% as the relative cell numbers.
Regardless of metabolic activation system, the test materials have been prepared after 24 hours from the initiation of test. Then, the number of chromosomal aberration has been counted.

Chromosomal aberration test Results ([3]; +S9, dose 10 μg/kg) | induction of chromosomal aberration [3] | Chromosomal aberration test Results ([3]; −S9, dose 2.5 μg/ml) | Chromosomal aberration test Result ([3]; Table 5, +S9, dose not stated) | Chromosomal aberration test Result ([3]; Table 5, −S9, dose not given) | SMILES | anti-gastritis efficacy ([1]; oral) | Lesion inhibition rate ([1]; oral, dose 1 mg/kg) | Lesion inhibition rate ([1]; oral, dose 3 mg/kg) | Lesion inhibition rate ([1]; oral, dose 10 mg/kg) | anti-stomach ulcer efficacy [2] | Lesion inhibition rate ([2]; dose 1 mg/kg) | Lesion inhibition rate ([2]; dose 3 mg/kg) | Lesion inhibition rate ([2]; dose 10 mg/kg) | also measured
negative | do not induce the chromosomal aberration | negative |  |  | C=C1C(=O)O[C@@H]2[C@@H]3[C@@H](CC[C@@]3(C)O)C(=C)CC[C@@H]12 [CD-102] | dose dependent manner | 43.0% | 70.4% | 94.9% | dose dependent manner | 41.6% | 56.1% | 77.2% | ED50 ([1]; Rattus norvegicus, oral, regression analysis of lesion inhibition, read-out: 50% effective dose (ED50)): 1.31 mg/kg; Gastric lesion area ([1]; oral, dose 1 mg/kg): 133.5 ± 21.0* mm^2; Gastric lesion area ([1]; oral, dose 3 mg/kg): 69.4 ± 18.4* mm^2; Gastric lesion area ([1]; oral, dose 10 mg/kg): 11.9 ± 10.0* mm^2; ED50 ([2]; Rattus norvegicus, regression analysis of lesion inhibition, read-out: 50% effective dose (ED50)): 1.82 mg/kg; Gastric lesion area ([2]; dose 1 mg/kg): 35.0 ± 5.2 mm^2; Gastric lesion area ([2]; dose 3 mg/kg): 26.3 ± 6.8* mm^2; Gastric lesion area ([2]; dose 10 mg/kg): 13.6 ± 2.9* mm^2; Chromosomal aberration test Results ([3]; +S9, dose 5 μg/kg): negative; Chromosomal aberration test Results ([3]; +S9, dose 20 μg/kg): negative; Chromosomal aberration test Results ([3]; −S9, dose 1.25 μg/kg): negative; Chromosomal aberration test Results ([3]; −S9, dose 5 μg/kg): negative
negative | do not induce the chromosomal aberration | negative |  |  | C=C1C(=O)O[C@@H]2[C@@H]3[C@@H](CC[C@@]3(C)O)[C@](C)(OC)CC[C@@H]12 [CD-103] | dose dependent manner | 56.9% | 66.9% | 99.5% | dose dependent manner | 37.9% | 57.3% | 74.0% | Lesion inhibition rate ([1]; oral, dose 30 mg/kg): 99.5%; 50% effective dose (ED50) ([1]; oral, regression analysis of lesion inhibition): 2.55 mg/kg; 50% effective dose (ED50) ([2]; regression analysis of lesion inhibition): 2.06 mg/kg; Chromosomal aberration test Results ([3]; +S9, dose 2.5 μg/ml): negative; Chromosomal aberration test Results ([3]; +S9, dose 5 μg/kg): negative; Chromosomal aberration test Results ([3]; −S9, dose 0.625 μg/kg): negative; Chromosomal aberration test Results ([3]; −S9, dose 1.25 μg/kg): negative
negative | do not induce the chromosomal aberration | negative |  |  | C=C1C(=O)O[C@@H]2[C@@H](O)[C@]3(C)CC[C@H]3[C@](C)(OC)CC[C@@H]12 [CD-101] | dose dependent manner | 42.3% | 74.7% | 91.8% | dose dependent manner | 26.9% | 56.6% | 73.1% | Chromosomal aberration test Results ([3]; +S9, dose 20 μg/kg): negative; Chromosomal aberration test Results ([3]; +S9, dose 40 μg/kg): negative; Chromosomal aberration test Results ([3]; −S9, dose 5 μg/kg): negative; Chromosomal aberration test Results ([3]; −S9, dose 10 μg/kg): negative

The next lines start with the compound.

SMILES | Chromosomal aberration test Results ([3]; +S9, dose 10 μg/kg) | induction of chromosomal aberration [3] | Chromosomal aberration test Results ([3]; −S9, dose 2.5 μg/ml) | Chromosomal aberration test Result ([3]; Table 5, +S9, dose not stated) | Chromosomal aberration test Result ([3]; Table 5, −S9, dose not given) | anti-gastritis efficacy ([1]; oral) | Lesion inhibition rate ([1]; oral, dose 1 mg/kg) | Lesion inhibition rate ([1]; oral, dose 3 mg/kg) | Lesion inhibition rate ([1]; oral, dose 10 mg/kg) | anti-stomach ulcer efficacy [2] | Lesion inhibition rate ([2]; dose 1 mg/kg) | Lesion inhibition rate ([2]; dose 3 mg/kg) | Lesion inhibition rate ([2]; dose 10 mg/kg) | also measured
CC1=C2C3OC(=O)[C@@H](C)[C@@H]3CC[C@@]2(C)C=CC1=O (stereo partly drawn) |  |  |  |  |  |  |  |  |  |  |  |  |  | Lesion inhibition rate ([1]; Table 2, ineffective compounds, dose not stated): no effect
CC(=O)O[C@@H]1/C=C(\C)CCC/C(C)=C/[C@H]2OC(=O)[C@H](CN(C)C)C12 (stereo partly drawn) [reference compound] |  |  |  | positive positive | positive positive |  |  |  |  |  |  |  |  | 
O=C(NC(Cc1cc(=O)[nH]c2ccccc12)C(=O)O)c1ccc(Cl)cc1 (stereo not drawn) [Rebamipide, reference compound] |  |  |  |  |  |  |  |  |  |  |  |  |  | Lesion inhibition rate ([1]; oral, dose 50 mg/kg): 30%; Lesion inhibition rate ([2]; dose 50 mg/kg): 49.6%
C=C1C(=O)O[C@@H]2/C=C(\C)CCC(O)C(C)(O)C[C@@H](OC(C)=O)C12 (stereo partly drawn) [reference compound] |  |  |  | positive positive | positive positive |  |  |  |  |  |  |  |  | 
CO[C@@]12[C@H](COC(N)=O)C3=C(C(=O)C(C)=C(N)C3=O)N1C[C@@H]1N[C@@H]12 [Mitomycin C, reference compound] |  |  |  |  |  |  |  |  |  |  |  |  |  | Chromosomal aberration test Results ([3]; −S9, dose 0.5 μg/kg): positive
C=C1C(=O)O[C@@H]2/C=C(\C)CC/C=C(\C)C[C@@H](OC(C)=O)C12 (stereo partly drawn) [reference compound] |  |  |  | positive positive | positive positive |  |  |  |  |  |  |  |  | 
